The values that follow come from US9815792B2, “Method for producing carboxamides” (BAYER CROPSCIENCE AKTIENGESELLSCHAFT, priority 2014, dated 2017).

Like-named read-outs stand apart in the source and are kept apart here.

Series [1] can be described thus: Determination of log P values by HPLC on reversed-phase column (C18). The format is physicochemical. The protocol:
Unless indicated otherwise, the following method was used to determine the log P values and masses: The determination of the given log P values was carried out in accordance with EEC Directive 79/831 Annex V.A8 by HPLC (High Performance Liquid Chromatography) on a reversed-phase column (C18). […] Mass detection is effected by means of an Agilend MSD system.

The subject of series [2] is Phaedon cochleariae. As to the kind of experiment: Phaedon cochleariae spray test (PHAECO). Type of series: in vivo. Conditions: 500 g/ha, Chinese cabbage leaf discs, after 7 days. The protocol: Phaedon cochleariae—spray test (PHAECO) • Solvent: 78.0 parts by weight of acetone 1.5 parts by weight of dimethylformamide • Emulsifier: alkylaryl polyglycol ether
(§1) To produce a suitable preparation of active compound, 1 part by weight of active compound is dissolved using the stated parts by weight of solvent and made up with water containing an emulsifier concentration of 1000 ppm until the desired concentration is attained. To produce further test concentrations, the preparation is diluted with emulsifier-containing water.
After 7 days, the efficacy in % is determined. 100% means that all the beetle larvae have been killed; 0% means that no beetle larvae have been killed.

Series [3] relates to Meloidogyne incognita. As to the kind of experiment: Meloidogyne incognita test (MELGIN). The format is in vivo. Conditions: 20 ppm, lettuce, after 14 days. The method, then: Meloidogyne incognita test (MELGIN)
Solvent: 125.0 parts by weight of acetone
To produce a suitable active compound formulation, 1 part by weight of active compound is mixed with the stated amount of solvent and the concentrate is diluted with water to the desired concentration.
Vessels are filled with sand, active compound solution, an egg/larvae suspension of the southern root-knot nematode (Meloidogyne incognita) and lettuce seeds. The lettuce seeds germinate and the plants develop. The galls develop on the roots.
After 14 days, the nematicidal efficacy in % is determined by the formation of galls. 100% means that no galls were found; 0% means that the number of galls on the treated plants corresponds to the untreated control.

The test system of series [4] is Cooperia curticei. Nature of the series: Cooperia curticei test (COOPCU). Type of series: in vivo. Conditions: 20 ppm, nematode larvae, after 5 days. The protocol:
Cooperia curticei test (COOPCU)
(§2) Solvent: dimethyl sulphoxide
(§3) To produce a suitable preparation of active compound, 10 mg of active compound are mixed with 0.5 ml of dimethyl sulphoxide and the concentrate is diluted with “Ringer's solution” to the desired concentration.
Vessels containing the active compound preparation of the desired concentration are populated with about 40 nematode larvae (Cooperia curticei).
(§4) After 5 days, the kill in % is determined. 100% means that all the larvae has been killed; 0% means that none of the larvae has been killed.

For series [5], the system named is Haemonchus contortus. Nature of the series: Haemonchus contortus test (HAEMCO). Type of series: in vivo. Conditions: 20 ppm, larvae of the red stomach worm, after 5 days. The method, then: Haemonchus contortus—test (HAEMCO)
as §2, §3
Vessels containing the active compound preparation of the desired concentration are populated with about 40 larvae of the red stomach worm (Haemonchus contortus).
as §4

The test system of series [6] is Boophilus microplus. Nature of the series: Boophilus microplus injection test (BOOPMI inj). The format is in vivo. The note with it: 20 μg/animal, injection into engorged adult female cattle ticks, assessed after 7 days. The method, then: Boophilus microplus—injection test (BOOPMI inj)
as §2
To produce a suitable preparation of active compound, 10 mg of active compound are mixed with 0.5 ml of solvent and the concentrate is diluted with solvent to the desired concentration.
1 μl of the active compound solution is injected into the abdomen of 5 engorged adult female cattle ticks (Boophilus microplus). The animals are transferred into dishes and kept in a climate-controlled room.
Efficacy is assessed after 7 days by laying of fertile eggs. Eggs which are not visibly fertile are stored in a climate-controlled cabinet until the larvae hatch after about 42 days. An efficacy of 100% means that none of the ticks has laid any fertile eggs; 0% means that all the eggs are fertile.

Series [7] has as its system Tetranychus urticae. Nature of the series: Tetranychus urticae spray test, OP-resistant (TETRUR). The format is in vivo. Conditions: 500 g/ha, bean leaf discs, after 6 days. The method, then: Tetranychus urticae—spray test, OP-resistant (TETRUR) • Solvent: 78.0 parts by weight of acetone 1.5 parts by weight of dimethylformamide • Emulsifier: alkylaryl polyglycol ether
as §1
Discs of bean leaves (Phaseolus vulgaris) infested by all stages of the greenhouse red spider mite (Tetranychus urticae) are sprayed with an active compound formulation of the desired concentration.
After 6 days, the efficacy in % is determined. 100% means that all the spider mites have been killed; 0% means that no spider mites have been killed.

[8] abbreviates: formic acid method, read-out: log P(HCOOH).
The mark [9] stands for this setting: neutral, read-out: log P(neutral).

As to `Nc1cnn(-c2c(F)cccc2F)c1` [1-(2,6-Difluorophenyl)-1H-pyrazole-4-amine], the chromatographic logP in series [1] (setting [8]) worked out at 0.09; in series [1] (setting [9]), 0.89.

Consider `Nc1cnn(-c2c(F)cccc2F)c1C(F)(F)F` [1-(2,6-Difluorophenyl)-5-(trifluoromethyl)-1H-pyrazole-4-amine], for which the chromatographic logP in series [1] (setting [8]) was found to be 2.14; in series [1] (setting [9]), 2.13.

For the compound `O=C(O)c1cnn(-c2c(F)cccc2F)c1C(F)(F)F` [1-(2,6-Difluorophenyl)-5-(trifluoromethyl)-1H-pyrazole-4-carboxylic acid], the values for the chromatographic logP in series [1] (setting [8]) and in series [1] (setting [9]) were 2.1 and 0.13, respectively. Consider `O=[N+]([O-])c1cnn(-c2c(F)cc(Cl)cc2F)c1` [1-(4-Chloro-2,6-difluorophenyl)-4-nitro-1H-pyrazole], for which the chromatographic logP was 2.74 in series [1] (setting [8]) and 2.72 in series [1] (setting [9]). In the case of `Fc1cc(Cl)cc(F)c1-n1cccn1` [1-(4-chloro-2,6-difluorophenyl)pyrazole], the results for the chromatographic logP in series [1] (setting [8]) and in series [1] (setting [9]) were 2.36 and 2.34, respectively.

For the compound `Nc1cnn(-c2c(F)cc(F)cc2F)c1C(F)(F)F` [5-(Trifluoromethyl)-1-(2,4,6-trifluorophenyl)-1H-pyrazole-4-amine], the chromatographic logP in series [1] (setting [8]) and in series [1] (setting [9]) was 2.35 throughout.

With `Nc1cnn(-c2c(F)cc(Cl)cc2F)c1Cl` [5-Chloro-1-(4-chloro-2,6-difluorophenyl)-1H-pyrazole-4-amine], the results for the chromatographic logP in series [1] (setting [8]) and in series [1] (setting [9]) were 2.08 and 2.14, respectively. For `NNc1c(F)cc(Cl)cc1F` [(4-chloro-2,6-difluorophenyl)hydrazine] the same measures were 0.15 and 1.44. On to `CCOC(=O)c1cnn(-c2c(F)cccc2F)c1C(F)(F)F` [Ethyl 1-(2,6-difluorophenyl)-5-(trifluoromethyl)-1H-pyrazole-4-carboxylate], for which the chromatographic logP in series [1] (setting [8]) came out at 3.56; in series [1] (setting [9]) it was 3.52.

As to `O=C(Nc1cnn(-c2ccccc2F)c1)c1ccccc1I` [I-1-7], the “efficacy (beetle larvae killed)” value in series [2] amounted to 83%. In addition, in series [3], the “nematicidal efficacy (formation of galls)” value (“nematicidal efficacy” below) is reported as 90%. Also, the “efficacy (kill in %)” value in series [4] and in series [5] was 90% in each case.

Turning to `O=C(Nc1cnn(-c2ccccc2F)c1)c1ccccc1C(F)(F)F` [I-1-8], the “nematicidal efficacy” value in series [3] is 90%. Further, the “efficacy (kill in %)” value in series [4] and in series [5] was 100% throughout. `O=C(Nc1cnn(-c2c(F)cccc2F)c1)c1ccccc1C(F)(F)F` [I-1-9, N-[1-(2,6-Difluorophenyl)-1H-pyrazol-4-yl]-2-(trifluoromethyl)benzamide]: the “nematicidal efficacy” value in series [3] was found to be 100%. Further, the “efficacy (kill in %)” value in series [4] and in series [5] was 100% each time. For the same compound, the chromatographic logP in series [1] (setting [8]) is 2.45; in series [1] (setting [9]), 2.36. Take `O=C(Nc1cnn(-c2ncccc2F)c1)c1ccccc1C(F)(F)F` [I-1-10]: in series [3], the “nematicidal efficacy” value came out at 90%. Also, the “efficacy (kill in %)” value in series [5] came out at 90%. The “efficacy (laying of fertile eggs)” value in series [6] was 100%. `O=C(Nc1cnn(-c2ncccc2F)c1)c1ccccc1Br` [I-1-16]: in series [3], the “nematicidal efficacy” value worked out at 90%. For `O=C(Nc1cnn(-c2ncccc2F)c1)c1ccccc1Cl` [I-1-17], the “nematicidal efficacy” value in series [3] is given as 100%. Turning to `O=C(Nc1cnn(-c2ncccc2F)c1)c1c(F)cccc1C(F)(F)F` [I-1-18], the “efficacy (kill in %)” value in series [5] stood at 80%.

Consider `O=C(Nc1cnn(-c2ncccc2Cl)c1)c1ccccc1I` [I-1-22], for which, in series [5], the “efficacy (kill in %)” value is recorded as 100%. Regarding `O=C(Nc1cnn(-c2ncccc2Cl)c1)c1ccccc1Cl` [I-1-23], the “efficacy (beetle larvae killed)” value in series [2] is 100%. In series [3], the “nematicidal efficacy” value worked out at 90%. For the same compound, the “efficacy (kill in %)” value in series [5] came out at 90%. As to `O=C(Nc1cnn(-c2ncccc2Cl)c1)c1ccccc1C(F)(F)F` [I-1-24], the “efficacy (kill in %)” value amounted to 90% in series [4] and 100% in series [5].

Turning to `O=C(Nc1cnn(-c2ncccc2Cl)c1)c1c(F)cccc1C(F)(F)F` [I-1-25], the “efficacy (kill in %)” value in series [4] is reported as 90%; in series [5], 100%.

Turning to `O=C(Nc1cnn(-c2ncccc2Cl)c1)c1ccccc1Br` [I-1-26], the “efficacy (kill in %)” value in series [5] turned out to be 100%.

Take `O=C(Nc1cnn(-c2ncccc2Br)c1)c1ccccc1C(F)(F)F` [I-1-29]: in series [4], the “efficacy (kill in %)” value came out at 80%.

In the case of `O=C(Nc1cnn(-c2ncccc2Br)c1)c1ccccc1Cl` [I-1-30], in series [2], the “efficacy (beetle larvae killed)” value worked out at 83%. Take `O=C(Nc1cnn(-c2ncccc2Br)c1)c1c(F)cccc1F` [I-1-31]: the “efficacy (beetle larvae killed)” value in series [2] is 100%. Consider `O=C(Nc1cnn(-c2cc(F)cnc2F)c1)c1ccccc1I` [I-1-33], for which the “efficacy (kill in %)” value in series [4] worked out at 80%. As for `O=C(Nc1cnn(-c2cnc(F)c(F)c2)c1)c1c(F)cccc1C(F)(F)F` [I-1-36], the “efficacy (kill in %)” value in series [4] was determined as 100%.

Take `O=C(Nc1cnn(-c2c(F)cccc2F)c1)c1ccccc1Br` [I-1-40]: the “efficacy (kill in %)” value is given as 80% in series [4] and 90% in series [5]. With `O=C(Nc1cnn(-c2c(F)cccc2F)c1)c1ccccc1Cl` [I-1-41], the “efficacy (beetle larvae killed)” value in series [2] came to 100%.

With `O=C(Nc1cnn(-c2c(F)cccc2F)c1)c1c(F)cccc1C(F)(F)F` [I-1-42], the “efficacy (kill in %)” value in series [4] is reported as 80%; in series [5], 100%. Regarding `O=C(Nc1cnn(-c2c(F)cc(Cl)cc2F)c1Cl)c1ccccc1I` [I-1-44], in series [7], the “efficacy (spider mites killed)” value turned out to be 95%. As for `N#Cc1cccc(F)c1-n1cc(NC(=O)c2ccccc2C(F)(F)F)cn1` [I-1-52, N-[1-(2-Cyano-6-fluorophenyl)-1H-pyrazol-4-yl]-2-(trifluoromethyl)benzamide], the chromatographic logP in series [1] (setting [8]) is 2.37; in series [1] (setting [9]), 2.33. As for `O=C(Nc1cnn(-c2c(F)cccc2C(F)(F)F)c1)c1ccccc1C(F)(F)F` [I-1-53], the “efficacy (kill in %)” value in series [4] is listed as 100%. On to `O=C(Nc1cnn(-c2c(F)cccc2F)c1)c1cccnc1C(F)(F)F` [I-1-58], for which the “efficacy (kill in %)” value in series [5] was determined as 80%. Take `O=C(Nc1cnn(-c2c(F)cccc2Cl)c1)c1ccccc1C(F)(F)F` [I-1-60]: in series [3], the “nematicidal efficacy” value is 90%. Consider `N#Cc1cccc(C#N)c1-n1cc(NC(=O)c2ccccc2C(F)(F)F)cn1` [I-1-68], for which the “nematicidal efficacy” value in series [3] was 100%. Regarding `O=C(Nc1cn[nH]c1)c1ccccc1C(F)(F)F` [N-(1H-Pyrazol-4-yl)-2-(trifluoromethyl)benzamide], the values for the chromatographic logP in series [1] (setting [8]) and in series [1] (setting [9]) were 1.21 and 1.22, respectively. For `CC(C)(C)OC(=O)Nc1cnn(-c2c(F)cccc2F)c1C(F)(F)F` [tert-Butyl [1-(2,6-difluorophenyl)-5-(trifluoromethyl)-1H-pyrazol-4-yl]carbamate], the chromatographic logP in series [1] (setting [8]) worked out at 3.61; in series [1] (setting [9]) it was 3.58.
